What all share (format): cell-based, human
In test [1] the test system is Glioblastoma LN-229. Briefly: MTT assay, glioblastoma LN-229. Particulars: 24 h; for induction of cell death, LN-229: 75 μM, 37° C. (In general: Tetrazolium dyes change colour on reduction, which living cells bring about.)
Method: (§1) Cytotoxicity effects were determined by MTT assay. […] Percent cytotoxicity is expressed as percentage of ceil death as compared to that of untreated control (0% cytotoxicity).
(§2) Approximately 2×10^4 cells per well were seeded into 96-well culture plates in 100 μl of RPMI 1640 medium. […] After 24 or 48 h treatment, 10 μl of 5 mg/ml MTT solution was added to the culture and incubated for 1 h at 37° C. The MTT reaction was terminated by the addition of 40 mM HCl in isopropanol. The MTT formazan formed was measured spectrophotometrically as described earlier (Mosmann, 1983). Untreated control cells were compared to treated cells for determining viability and therefore a measure of cytotoxicity.
Test [2] concerns Astrocytoma CCF-STTG1. Briefly: MTT assay, astrocytoma CCF-STTG1. Particulars: 75 μM, 24 h, 37° C.
Method: as §1, §2
Test [3] concerns MCF-7 breast cancer cells. Briefly: MCF-7 cell growth, cells counted in coulter counter. Here is the method: The extent of cell growth inhibition was about 25% at 5 ug/ml of the 18-mer synthetic peptide as compared to untreated control.

Regarding TFDVSKLKEGEQYMFFCT [Azu 96-113], in test [1], the “induction of cell death, LN-229” value is “showed induction of cell death”. Also, the “dose dependence of cytotoxicity, glioblastoma LN-229” value in test [1] (10, 25, 50, 75, 100 μM) is “increasing peptide concentrations led to increasing cytotoxicity”. Further, the “induction of cell death, CCF-STTG1” value in test [2] is listed as “showed induction of cell death”. In addition, the “inhibition of MCF-7 cell growth vs untreated control” value in test [3] (5 ug/ml) is “about 25%”. In addition, the “inhibition of MCF-7 cell growth vs untreated cells” value in test [3] (50 ug/ml, 48 to 72 hours) came to 50%.
Take VRIKLSTPGVYGVYCE [Plc 70-84]: the “induction of cell death, LN-229” value in test [1] was “showed induction of cell death”. Besides, the “induction of cell death, CCF-STTG1” value in test [2] is “showed induction of cell death”.

Values taken from patent US9096663B2, “Compositions and methods for treating conditions related to ephrin signaling with cupredoxins and mutants thereof” (The Board of Trustees of the University of Illinois, priority 2001, dated 2015).
